# How the values were obtained:
# Details in all cases: 72 h
# [1] = test system: U2OS; assay: relative viability EC50 (midpoint between 100% and the lowest measured viability); higher = less toxic
# [2] = test system: Calu-3; assay: as above
# [3] = test system: HepG2; assay: as above
# [4] = test system: Caco-2; assay: as above
# [5] = test system: Vero E6; assay: as above
# [6] = test system: U2OS; assay: cell viability relative to DMSO; higher = less toxic
# [7] = test system: Calu-3; assay: as above
# [8] = test system: HepG2; assay: as above
# [9] = test system: Caco-2; assay: as above
# [10] = test system: Vero E6; assay: as above
# [11] = test system: U2OS; assay: drug sensitivity score (DSS) for viability; higher = more toxic; extreme values may be limits of the assay
# [12] = test system: Calu-3; assay: as above
# [13] = test system: HepG2; assay: as above
# [14] = test system: Caco-2; assay: as above
# [15] = test system: Vero E6; assay: as above
SMILES,relative viability EC50 [1] [µM],relative viability EC50 [2] [µM],relative viability EC50 [3] [µM],relative viability EC50 [4] [µM],relative viability EC50 [5] [µM],cell viability ([6]; 1 nM) [%],cell viability ([6]; 10 nM) [%],cell viability ([6]; 100 nM) [%],cell viability ([6]; 1000 nM) [%],cell viability ([6]; 10000 nM) [%],cell viability ([7]; 1 nM) [%],cell viability ([7]; 10 nM) [%],cell viability ([7]; 100 nM) [%],cell viability ([7]; 1000 nM) [%],cell viability ([7]; 10000 nM) [%],cell viability ([8]; 1 nM) [%],cell viability ([8]; 10 nM) [%],cell viability ([8]; 100 nM) [%],cell viability ([8]; 1000 nM) [%],cell viability ([8]; 10000 nM) [%],cell viability ([9]; 1 nM) [%],cell viability ([9]; 10 nM) [%],cell viability ([9]; 100 nM) [%],cell viability ([9]; 1000 nM) [%],cell viability ([9]; 10000 nM) [%],cell viability ([10]; 1 nM) [%],cell viability ([10]; 10 nM) [%],cell viability ([10]; 100 nM) [%],cell viability ([10]; 1000 nM) [%],cell viability ([10]; 10000 nM) [%],drug sensitivity score [11],drug sensitivity score [12],drug sensitivity score [13],drug sensitivity score [14],drug sensitivity score [15]
CC(C)Cn1cnc2c1c(=O)n(C)c(=O)n2C [isbufylline],> 10,> 10,> 10,> 10,> 10,98.1,96.5,98.1,97.3,93.3,104,88.5,101,102,98.4,100,99,91.7,93.7,105,93.7,96.8,112,115,112,92.9,95.9,91.3,104,106,0,0,0,0,0
CN[C@@H](C)CCC=C(C)C [isometheptene-mucate],> 10,> 10,> 10,> 10,> 10,104,96.5,98.7,103,105,94,100,98.1,100,108,96.1,101,107,94.5,95,93.4,102,93.7,93.9,106,91.1,96.2,92.5,97,104,0,0,0,0,0
O=C(O)Cc1ccc2c(c1)C(=O)c1ccccc1CO2 [isoxepac],> 10,> 10,> 10,> 10,> 10,102,95.4,101,98.3,101,96.9,97.9,98.5,101,98.5,99.1,103,97.5,101,91.2,94.7,102,109,100,93.6,98.3,97.5,101,101,100,0,0,0,0,0
O=c1c(-c2ccc(O)cc2)coc2c([C@@H]3O[C@H](CO)[C@@H](O)[C@H](O)[C@H]3O)c(O)ccc12 [kakonein],> 10,> 10,> 10,> 10,> 10,99.2,95.1,99.3,95.2,97.9,104,99.3,111,102,95.5,95.7,97.7,84.6,99.6,93.5,122,104,108,106,96.3,98,103,99.1,95.3,91.8,0,0,0,0,0
O=C(O)c1cc(=O)c2ccccc2[nH]1 [kynurenic-acid],> 10,> 10,> 10,> 10,> 10,104,101,103,97,98.8,89.7,89.2,97.1,94.1,104,93.9,94.2,99.1,108,96,94.9,101,99.6,99.6,106,96.9,98.7,97.6,97.5,97.7,0,0,0,0,0
O=C1CCC[C@@H]2[C@H]3CCCN4CCC[C@@H](CN12)[C@@H]34 [matrine],> 10,> 10,> 10,> 10,> 10,96.1,96.4,96.4,93.7,99.1,97,93.5,100,98.5,100,89.9,108,85.8,111,103,97.6,94,94.9,91.4,90.4,96.8,98.7,93.3,99.1,104,0,0,0,0,0
CC(C)(C)NC[C@H](O)c1ccc(O)cc1Cl [meluadrine],> 10,> 10,> 10,> 10,> 10,99.3,101,96.4,100,96.4,92.8,104,98.3,104,104,105,106,103,95,105,97.9,97.6,93.9,97.6,90.7,109,102,102,99.9,104,0,0,0,0,0
COP(=O)(OC)OC(c1ccc(Cl)cc1)P(=O)(OC)OC (stereo not given) [mifobate],> 10,> 10,> 10,> 10,> 10,101,97.5,101,94.4,98.3,93.6,94.1,85.1,96.7,96.3,107,98.5,92.8,99.8,93.7,106,94.5,98,107,105,101,94.5,98,92.5,100,0,0,0,0,0
CCOC(=O)Nc1cc2c(c(N)n1)N=C(c1ccccc1)[C@H](C)N2 [mivobulin],0.005,0.0083,0.0067,0.0055,0.0039,95.7,38.6,20.7,23.3,21.9,95.7,65.2,37.5,40.7,42.7,99.6,42.9,24.1,21.5,22.9,103,52.5,48.7,47.3,42.2,94.3,20.2,8.2,9.9,13.5,32.4,23.7,31.1,23.8,38.5
CCCC[C@H](NC(=O)[C@@H]1[C@@H]2[C@H](CN1C(=O)[C@@H](NC(=O)NC1(CS(=O)(=O)C(C)(C)C)CCCCC1)C(C)(C)C)C2(C)C)C(=O)C(=O)NC1CC1 [narlaprevir],> 10,> 10,> 10,> 10,> 10,104,98.8,100,96.9,97.1,90.9,108,92.5,94.5,107,102,112,96.3,103,94.7,100,96.4,102,93.8,95.5,98.1,100,102,99.5,87.8,0,0,0,0,0.1
CCC[N+]12[C@H](O)[C@@H](CC)[C@@H]3C[C@H]1[C@@H]1N(C)c4ccccc4[C@]14C[C@H]2[C@@H]3[C@H]4O [neo-gilurytmal],> 10,> 10,> 10,> 10,> 10,100,95.7,101,91.5,101,104,98,96.4,100,91.4,93.4,99.1,92.3,97.8,104,103,99.3,92.6,86.2,93.1,100,99.4,98.4,97.4,95.7,0,0,0,1.3,0
NCC(O)c1ccc(O)cc1 (stereo not given) [octopamine],> 10,> 10,> 10,> 10,> 10,95.1,97.3,101,96.5,95.6,108,105,93,108,95.6,91.7,103,95.9,97.5,117,87.1,96.9,94,100,86.1,106,96.6,101,85.1,100,0,0,0,0.1,0
Cn1cnc2c(NCc3ccccc3)nc(NCCO)nc21 [olomoucine],> 10,> 10,> 10,> 10,> 10,103,101,103,96.9,108,102,97.9,96,99.9,105,106,106,96.4,112,114,97.5,93.3,92.5,98.7,106,93,98.1,96,99.7,104,0,0,0,0,0
COc1ccc2ccc(=O)oc2c1CC=C(C)C [osthol],> 10,> 10,> 10,> 10,> 10,92.9,100,93.3,99,102,86.6,98.2,104,114,108,96.5,105,98.8,106,100,94.3,95.1,94,100,101,95.1,94.4,95.9,93.2,99.2,0,0,0,0,0

# From the supplement of paper PMC13380429
